“Also recorded” adds a separate entry of the source.
Assays:
[1] = system: bFGF-induced angiogenesis; experiment: Chick CAM angiogenesis assay; format: in vivo
Protocol: Major vessels were quantitated at this time.
A: Control CAM; B: CAM treated with 1.2 μg/disk of Å6.
Å6 was tested for its effect on bFGF-induced angiogenesis in a 7 day old chick CAM assay.

3LL = experiment: Matrigel invasion assay, 3LL cells; format: cell-based, mouse; details: all the cell lines tested
Protocol: (§1) Several peptides were tested for anti-invasive capacity in a Matrigel® invasion assay system as indicated above (Kleinman et al., supra; Parish et al., supra). Several invasive human tumor lines (PC-3, MDA-MB-231) and non-human tumors (3LL, Mat B-III) were examined. The rat breast cancer line Mat B III and the human prostate cancer line PC-3 were initially used.
(§2) Tumor cells (5×10^5/mL, in a volume of 200 μL) in serum-free RPMI 1640 medium were added to a disposable transwell invasion chamber coated with Matrigel® (Becton Dickinson, Lincoln Park, N.J.). The invasion chambers were placed in 24-well tissue culture plates filled with serum-free RPMI-1640 and the plates were placed in an atmosphere of 5% CO2 in humidified air at 37° C. for 48-72 hours. The chambers were then removed, inverted, and the cells which had invaded (and now appeared on the bottom face of the invasion chamber) were fixed and stained using Diff-Quick® (Scientific Products). Cells were counted in 10 different fields on each filter and an average obtained.

PC-3 cells = experiment: PC-3 CAT metastasis model; format: in vivo, mice; details: minipump 100 mg/kg/day, 14 or 21 days
Protocol: The compounds of this invention are also tested for inhibition of late metastasis using an experimental metastasis model (Crowley et al., 1993). Late metastasis involves the steps of attachment and extravasation of tumor cells, local invasion, seeding, proliferation and angiogenesis.
Human prostatic carcinoma cells (PC-3) transfected with a reporter gene, preferably the green fluorescent protein (GFP) gene, but as an alternative with a gene encoding the enzymes chioramphenicol acetyl-transferase (CAT), luciferase or LacZ. This permits utilization of either of these markers (fluorescence detection of GFP or histochemical colorimetric detection of enzymatic activity) for following the fate of these cells. Cells are injected, preferably iv, and metastases identified after about 14 days, particularly in the lungs but also in regional lymph nodes, femurs and brain. This mimics the organ tropism of naturally occurring metastases of prostate cancer. For example, GFP-expressing PC-3 cells (1×10^6 cells per mouse) are injected iv into the tail veins of nude (nu/nu) mice. Animals are also implanted with mini-pumps (sub-dermally on the back) dispensing either the test compound (at least about 100 mg/kg/day) or vehicle. The animals are euthanized after 14 days and their organs prepared for histological examination. Single metastatic cells and foci are visualized and quantitated by fluorescence microscopy or light microscopic histochemistry or by grinding the tissue and quantitative colorimetric assay of the detectable label.
In addition to Å6, other related peptide compounds described above are tested for efficacy in vivo in the 3LL model (as provided above) as well as the PC-3 model. PC-3 cells transfected with the gene encoding the enzyme chloramphenicol acetyl-transferase (CAT) are inoculated into mice i.v. at doses of 1×10^6 cells per mouse. These mice are implanted with a minipump, as above, which dispenses 100 mg/kg/day of the peptide or vehicle over a period of 14 or 21 days. At termination of treatment, the animals are euthanized and the tumor marker probe is assayed in regional lymph nodes, femurs, lungs, and brain.

Mat B-III = experiment: In vitro proliferation, Mat B-III cells; format: cell-based, rat
Protocol: (§3) Å6 was also tested for its ability to inhibit the proliferation of cells other than endothelial cells in vitro.

scuPA-suPAR complex = scuPA-suPAR complex (Homo sapiens, UniProt P00749); experiment: Clot lysis assay ([125I] fibrin clots); format: biochemical; details: 30 minutes after initiation of clot lysis (FIG. 3)
Protocol: Fibrin clots were formed by supplementing plasma with [^125I] fibrinogen. Clotting was initiated by adding thrombin and calcium to the plasma mixture. Clots were washed to remove any free radioactivity, plasminogen and the activator to be tested were added to the clot and the release of [^125I] fibrin degradation products was monitored. The data presented in this figure is at 30 minutes after initiation of clot lysis. scuPA-suPAR: dose response with Å6 on clot lysis by scuPA-suPAR complex; scuPA: dose response on clot lysis by scuPA alone; scuPA/suPAR+scrambled pep: dose response with a scrambled version of Å6 (Ac-[sequence]-Am) (SEQ ID NO: 10).

[2] = cynomolgus monkey, in vivo, iv, 37.5 mg/kg
Excerpt: An LC/MS assay developed for the detection of Å6 in plasma has been validated for mouse and monkey plasma.

U87 = experiment: In vitro proliferation, U87 cells; format: cell-based, human
Protocol: as §3
Anti-angiogenic therapy is expected to produce both anti-proliferative and pro-apoptotic effects that would “prime” the tumor chemotherapy with these alkylating agents. The proliferative index in the U87 tumors was evaluated using Ki-67 staining followed by digitization of the staining intensity and quantitation.

uPAR = uPAR (Homo sapiens, UniProt Q03405); experiment: Binding of uPA to uPAR
[3] = system: MDA-MB-231 human breast cancer cells; experiment: MDA-MB-231 GFP xenograft model; design: species or system mice; details: mouse, in vivo
[4] = system: SMC (aortic smooth muscle cells); experiment: In vitro proliferation, SMC; format: cell-based
Protocol: as §3

[5] = system: human prostate cancer line PC-3; experiment: Matrigel invasion assay, PC-3 cells; format: cell-based; details: 5 μM (FIG. 1, FIG. 2)
Protocol: as §1, §2

CHO = experiment: In vitro proliferation, CHO cells; format: cell-based
Protocol: as §3

MDA-MB-231 = experiment: In vitro proliferation, MDA-MB-231 cells; format: cell-based, human
Protocol: as §3

scuPA-suPAR = scuPA-suPAR (Homo sapiens, UniProt P00749); experiment: Activation of plasminogen by scuPA-suPAR with small chromogenic substrates; format: biochemical
[6] = system: rat breast cancer line Mat B III; experiment: Matrigel invasion assay, Mat B-III cells; format: cell-based; details: FIG. 1 (5 μM), FIG. 7, FIG. 8
Protocol: as §1, §2

uPA = uPA (Homo sapiens, UniProt P00749); experiment: uPA activity / activation of plasminogen; format: biochemical
HeLa = experiment: In vitro proliferation, HeLa cells; format: cell-based
Protocol: as §3

plasmin = plasmin (Homo sapiens, UniProt P00747); experiment: Plasmin activity; format: biochemical
Sequence of plasmin (P00747 97-580 limits assumed, species assumed): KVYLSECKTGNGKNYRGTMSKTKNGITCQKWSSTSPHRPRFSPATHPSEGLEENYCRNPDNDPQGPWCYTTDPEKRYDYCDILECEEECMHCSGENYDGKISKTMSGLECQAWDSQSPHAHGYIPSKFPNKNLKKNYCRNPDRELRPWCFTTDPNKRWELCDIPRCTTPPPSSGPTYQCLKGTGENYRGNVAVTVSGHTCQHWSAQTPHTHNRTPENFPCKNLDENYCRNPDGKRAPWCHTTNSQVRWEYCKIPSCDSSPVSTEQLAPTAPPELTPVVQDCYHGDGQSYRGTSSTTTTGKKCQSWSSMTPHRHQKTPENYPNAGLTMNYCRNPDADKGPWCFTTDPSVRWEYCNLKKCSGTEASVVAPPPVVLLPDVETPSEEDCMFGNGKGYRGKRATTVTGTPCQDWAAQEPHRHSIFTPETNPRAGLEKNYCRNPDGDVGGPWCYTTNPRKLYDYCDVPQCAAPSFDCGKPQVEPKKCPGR
Sequence of plasmin (P00747 581-810 limits assumed, species assumed): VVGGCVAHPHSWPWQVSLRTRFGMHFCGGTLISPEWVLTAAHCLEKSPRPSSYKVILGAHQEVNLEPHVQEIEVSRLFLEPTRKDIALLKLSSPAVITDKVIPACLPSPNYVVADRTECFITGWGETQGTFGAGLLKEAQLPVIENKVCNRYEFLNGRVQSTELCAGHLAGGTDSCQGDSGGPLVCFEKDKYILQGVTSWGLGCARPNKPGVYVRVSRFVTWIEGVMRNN

Ac-KPSSPPEE-NH2 [Å6, CH3CO-Lys-Pro-Ser-Ser-Pro-Pro-Glu-Glu-NH2]
bFGF-induced angiogenesis (major vessel formation) in CAM ([1]; 7 day old chick CAM, 4 days): inhibits angiogenesis
branching morphogenesis in CAM ([1]; qualitative, stereomicroscopic images): inhibited branching morphogenesis
invasion of 3LL cells through Matrigel (3LL): inhibited
metastasis, PC-3 model (PC-3 cells): markedly inhibited
anti-proliferative effect, Mat B-III (Mat B-III): No anti-proliferative effects
scuPA-suPAR mediated clot lysis (scuPA-suPAR complex): inhibits
clearance [2]: 0.7 mL/min/kg
half-life [2]: 24 min
anti-proliferative effect, U87 (U87): No anti-proliferative effects; also recorded: did not inhibit
potentiation of the anti-proliferative activity of CDDP against U87 cells (U87): did not potentiate
potentiation of the pro-apoptotic activity of CDDP (U87): nor did it potentiate
inhibition of binding of uPA to uPAR (uPAR): no effect
efficacy on tumors staged to 50-100 mm^3 prior to initiating treatment [3]: ineffective
anti-proliferative effect, SMC [4]: No anti-proliferative effects
in vitro invasion of PC-3 cells in a Matrigel system [5]: inhibited the invasion
anti-proliferative effect, CHO (CHO): No anti-proliferative effects
anti-proliferative effect, MDA-MB-231 (MDA-MB-231): No anti-proliferative effects
effect on activation of plasminogen by scuPA-suPAR (scuPA-suPAR): did not affect
invasion of Mat B-III cells through Matrigel [6]: optimal; also recorded: inhibits the invasion
invasion of Mat B-III cells through Matrigel ([6]; listed as Ac-KPSSPPEE-Am): inhibited the invasion
effect on the activity of uPA directly (uPA): did not affect
inhibition of the activation of plasminogen (uPA): no effect
anti-proliferative effect, HeLa (HeLa): No anti-proliferative effects
effect on the activity of plasmin directly (plasmin): did not affect

From patent US8110543B2, “Anti-invasive and anti-angiogenic compositions” (Angstrom Pharmaceuticals, Inc., priority 1997, dated 2012)
